Data reported in US7351737B2, “4-[(8-substituted)-6-chromanoyl]-and 4-[8-substituted)-chroman-6-YL-ethynyl]-benzoic and phenylacetic acids, their esters and salts having cytochrome P450RAI inhibitory activity” (Allergan, Inc., priority 2002, dated 2008).

How the values were obtained:
P450RAI-2 = biological target: T1, P450RAI-2 (Homo sapiens, UniProt Q9NR63); experiment: P450RAI-2 cell-based inhibitor assay ([3H]-RA metabolism, intact cells); conditions: P450RAI-2 stably transfected HeLa cells, 3 hours at 37° C., all-trans-RA metabolism; read-out: P450RAI INHIBITION DATA RAI-2 Intact Cells IC50
T1 construct: expressed in transfected cells; host or cells: HeLa
T1 sequence (Q9NR63 1-512): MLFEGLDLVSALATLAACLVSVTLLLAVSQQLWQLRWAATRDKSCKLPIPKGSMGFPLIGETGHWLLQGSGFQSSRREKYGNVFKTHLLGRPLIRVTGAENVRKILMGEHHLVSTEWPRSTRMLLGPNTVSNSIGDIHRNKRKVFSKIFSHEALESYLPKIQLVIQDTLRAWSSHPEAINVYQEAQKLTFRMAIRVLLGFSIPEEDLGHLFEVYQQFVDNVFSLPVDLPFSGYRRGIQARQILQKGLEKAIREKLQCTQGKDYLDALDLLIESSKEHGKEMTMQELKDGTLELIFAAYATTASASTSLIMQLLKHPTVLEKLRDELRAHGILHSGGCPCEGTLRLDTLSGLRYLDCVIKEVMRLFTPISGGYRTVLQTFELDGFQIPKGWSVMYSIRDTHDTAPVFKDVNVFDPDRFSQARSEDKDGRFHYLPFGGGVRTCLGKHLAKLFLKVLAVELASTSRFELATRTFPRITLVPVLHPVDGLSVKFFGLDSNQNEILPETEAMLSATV
Experimental: FIG. 1 is a schematic representation of the P450RAI cell based assay utilized to evaluate the ability of the compounds of the invention to inhibit the Cytochrome P450RAI enzyme.
P450RAI-1 and P450RAI-2 Cell-Based Inhibitor Assay:
P450RAI-1 stably transfected HeLa cells, or P450RAI-2 stably transfected HeLa cells, as applicable, are maintained in […] tissue culture dishes in Modified Eagle's Medium (MEM) containing 10% Fetal Bovine Serum (FBS) and 100 μg/ml hygromycin. Exponentially growing cells are harvested by incubating in trypsin. Cells are then washed with 1X Phosphate Buffered Saline (PBS) and plated in a 48-well plate at 5×10^5 cells in 0.2 ml MEM medium containing 10% FBS and 0.05 μCi [^3H]-RA in the presence or absence of increasing concentrations of the test compounds. The compounds are diluted in 100% DMSO and then added in triplicate wells at either 10, 1 or 0.1 μM final concentration. As a positive control for RA metabolism inhibition, cells are also incubated with ketoconazole at 100, 10 and 1 μM. Cells are incubated for 3 hours at 37° C. The retinoids are then extracted using the procedure of Bligh et al. (1959) Canadian Journal of Biochemistry 37, 911-917, modified by using methylenechloride instead of chloroform. The publication Bligh et al. (1959) Canadian Journal of Biochemistry 37, 911-917 is specifically incorporated herein by reference. The water soluble radioactivity is quantified using a β-scintillation counter. IC50 values represent the concentration of inhibitor required to inhibit all-trans-RA metabolism by 50 percent and are derived manually from log-transformed data.

RARα = biological target: T2, RARα (Homo sapiens, UniProt P10276); experiment: ligand binding assay, RARα; conditions: last item of cell, read-out: RAR α Kd
T2 sequence (P10276 1-462): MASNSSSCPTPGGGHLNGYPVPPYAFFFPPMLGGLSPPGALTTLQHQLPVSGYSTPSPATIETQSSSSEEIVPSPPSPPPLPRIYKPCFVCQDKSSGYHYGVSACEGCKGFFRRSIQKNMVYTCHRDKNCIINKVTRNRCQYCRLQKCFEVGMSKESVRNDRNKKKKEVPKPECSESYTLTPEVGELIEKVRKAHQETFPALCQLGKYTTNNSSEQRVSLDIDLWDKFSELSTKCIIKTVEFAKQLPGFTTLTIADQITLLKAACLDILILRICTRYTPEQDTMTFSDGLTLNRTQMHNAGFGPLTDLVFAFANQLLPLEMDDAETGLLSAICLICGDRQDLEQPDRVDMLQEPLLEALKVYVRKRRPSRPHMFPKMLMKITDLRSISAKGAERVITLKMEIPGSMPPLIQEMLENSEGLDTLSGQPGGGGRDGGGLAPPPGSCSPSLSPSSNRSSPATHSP
Source text: (§1) Assays described below measure the ability of a compound to bind to, and/or activate various retinoid receptor subtypes. When in these assays a compound binds to a given receptor subtype and activates the transcription of a reporter gene through that subtype, then the compound is considered an agonist of that receptor subtype. […] In the below described assays the ability of the compounds to bind to RARα, RARβ, RARγ, RXRα, RXRβ and RXRγ receptors, and the ability or inability of the compounds to activate transcription of a reporter gene through these receptor subtypes can be tested.
(§2) A holoreceptor transactivation assay and a ligand binding assay which measure the antagonist/agonist like activity of the compounds of the invention, or their ability to bind to the several retinoid receptor subtypes, respectively, are described in published PCT Application No. WO WO93/11755 (particularly on pages 30-33 and 37-41) published on Jun. 24, 1993, the specification of which is also incorporated herein by reference. A detailed experimental procedure for holoreceptor transactivations has been described by Heyman et al. Cell 68, 397-406, (1992); Allegretto et al. J. Biol. Chem. 268, 26625-26633, and Mangelsdorf et al. The Retinoids: Biology, Chemistry and Medicine, pp 319-349, Raven Press Ltd., New York, which are expressly incorporated herein by reference. The results obtained in this assay are expressed in EC50 numbers, as they are also in the chimeric receptor transactivation assay. The results of ligand binding assay are expressed in Kd numbers. (See Cheng et al. Biochemical Pharmacology Vol. 22 pp 3099-3108, expressly incorporated herein by reference.)
(§3) The results of the ligand binding assay for several preferred compounds of the invention are included in Table 1.

RARγ = biological target: T3, RARγ (Homo sapiens, UniProt P13631); experiment: ligand binding assay, RARγ; conditions: last item of cell, read-out: RAR γ Kd
T3 sequence (P13631 1-454): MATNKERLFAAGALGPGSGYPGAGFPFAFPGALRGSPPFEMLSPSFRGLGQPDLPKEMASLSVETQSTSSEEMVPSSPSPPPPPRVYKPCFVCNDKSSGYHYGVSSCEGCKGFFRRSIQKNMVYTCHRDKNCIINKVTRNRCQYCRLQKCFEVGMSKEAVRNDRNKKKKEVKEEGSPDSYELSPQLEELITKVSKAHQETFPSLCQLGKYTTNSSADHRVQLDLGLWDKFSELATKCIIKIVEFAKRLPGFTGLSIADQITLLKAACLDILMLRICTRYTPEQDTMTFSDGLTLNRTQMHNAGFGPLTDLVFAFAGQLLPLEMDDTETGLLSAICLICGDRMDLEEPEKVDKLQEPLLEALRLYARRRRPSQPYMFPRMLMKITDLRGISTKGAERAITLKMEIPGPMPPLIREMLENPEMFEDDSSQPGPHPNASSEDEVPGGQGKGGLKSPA
Source text: as §1, §2, §3

SMILES: CC(=O)OCOC(=O)Cc1ccc(OC(=O)c2cc(C#N)c3c(c2)C(C)(C)CC(C)(C)O3)cc1F [Compound 33, 8-Cyano-2,2,4,4-tetramethyl-chroman-6-carboxylic acid 4-acetoxymethoxycarbonylmethyl-3-fluoro-phenyl ester]
- IC50 (P450RAI-2): 0.7 µM
- Kd (RARα): > 10 µM
- Kd (RARγ): > 10 µM

SMILES: C#Cc1cc(C(=O)Oc2ccc(CC(=O)OCC)cc2)cc2c1OC(C)(C)CC2(C)C [Compound 2, 8-Ethynyl-2,2,4,4-tetramethyl-chroman-6-carboxylic acid 4-ethoxycarbonylmethyl-phenyl ester]
- IC50 (P450RAI-2): 6 µM
- Kd (RARα): > 10 µM
- Kd (RARγ): > 10 µM

SMILES: C#Cc1cc(C(=O)Oc2ccc(CC(=O)OCOC(C)=O)c(F)c2)cc2c1OC(C)(C)CC2(C)C [Compound 5, 8-Ethynyl-2,2,4,4-tetramethyl-chroman-6-carboxylic acid 4-acetoxymethoxycarbonylmethyl-3-fluoro-phenyl ester]
- IC50 (P450RAI-2): 0.03 µM
- Kd (RARα): 4.68 µM
- Kd (RARγ): > 10 µM

SMILES: C#Cc1cc(C(=O)Oc2ccc(CC(=O)OCOC(C)=O)cc2)cc2c1OC(C)(C)CC2(C)C [Compound 3, 8-Ethynyl-2,2,4,4-tetramethyl-chroman-6-carboxylic acid 4-acetoxymethoxycarbonylmethyl-phenyl ester]
- IC50 (P450RAI-2): 0.08 µM
- Kd (RARα): > 10 µM
- Kd (RARγ): > 10 µM

SMILES: C#Cc1cc(C(=O)Oc2ccc(CC(=O)O)c(F)c2)cc2c1OC(C)(C)CC2(C)C [Compound 4, 8-Ethynyl-2,2,4,4-tetramethyl-chroman-6-carboxylic acid-4-carboxymethyl-3-fluoro-phenyl ester]
- IC50 (P450RAI-2): 0.06 µM
- Kd (RARα): 3.47 µM
- Kd (RARγ): > 10 µM

SMILES: C#Cc1cc(C#Cc2ccc(CC(=O)O)cc2)cc2c1OC(C)(C)CC2(C)C [Compound 40, [4-(8-Ethynyl-2,2,4,4-tetramethyl-chroman-6-ylethynyl)-phenyl]-acetic acid]
- IC50 (P450RAI-2): 0.007 µM
- Kd (RARα): > 10 µM
- Kd (RARγ): > 10 µM

SMILES: C#Cc1cc(C(=O)Oc2ccc(CC(=O)O)cc2)cc2c1OC(C)(C)CC2(C)C [Compound 1, 8-Ethynyl-2,2,4,4-tetramethyl-chroman-6-carboxylic acid 4-carboxymethyl-phenyl ester]
- IC50 (P450RAI-2): 0.014 µM
- Kd (RARα): > 10 µM
- Kd (RARγ): > 10 µM

SMILES: CC1(C)CC(C)(C)c2cc(C(=O)Oc3ccc(CC(=O)O)c(F)c3)cc(C#N)c2O1 [Compound 32, 8-Cyano-2,2,4,4-tetramethyl-chroman-6-carboxylic acid-4-carboxymethyl-3-fluoro-phenyl ester]
- IC50 (P450RAI-2): 0.9 µM
- Kd (RARα): > 10 µM
- Kd (RARγ): > 10 µM

SMILES: C#Cc1cc(C#Cc2ccc(CC(=O)O)c(F)c2)cc2c1OC(C)(C)CC2(C)C [Compound 41, [4-(8-Ethynyl-2,2,4,4-tetramethyl-chroman-6-ylethynyl)-2-fluoro-phenyl]-acetic acid]
- IC50 (P450RAI-2): 0.004 µM
- Kd (RARα): > 10 µM
- Kd (RARγ): > 10 µM

SMILES: C#CCc1cc(C#Cc2ccc(CC(=O)O)cc2)cc2c1OC(C)(C)CC2(C)C [Compound 49]
- IC50 (P450RAI-2): 0.12 µM
- Kd (RARα): 7.24 µM
- Kd (RARγ): 8.24 µM
